# Test results: US6811990B1, “Methods and compositions for coupled luminescent assays” (priority 2001, dated 2004)
# Like-named read-outs stand apart in the source and are kept apart here.
# Experiments:
# G3PDH or PGK = test: Stop reagent test in DeathTRAK reaction with G3PDH test enzyme; type: biochemical; conditions: ~3 mM final BPV, added after 21 minutes, with and without added PGK
# Excerpt: In another aspect, the present invention provides methods and compositions for a single-timepoint coupled luminescent assay, making use of a stop reagent to end the production of the high-energy molecule that is the luciferase substrate, while allowing the luciferase reaction to continue. In a preferred embodiment of this concept, an inhibitor of G3PDH or PGK is used to stop production of ATP in the DeathTRAK reactions of Examples 1 and 2. […] It is also possible to perform a single read without a stop reagent, but the stop reagent allows the read to be done at a time convenient to the user, multiple times, or for an extended period. […] Any molecule which inhibits G3PDH and/or PGK, but inhibits luciferase to a lesser or insignificant degree, might be used.
# To a 0.5-mL aliquot of this cocktail, 0.0016 mL of 1:1,000,000-diluted PGK were added (termed “+PGK” cocktail). Two 0.045-mL aliquots of the standard unoptimized cocktail and two 0.045-mL aliquots of the “+PGK” cocktail were measured into a luminescent microtiter plate. 0.005 mL of 1:100,000-diluted G3PDH was transferred to each of these four aliquots of cocktail. […] Use of this or an alternative stop reagent allows the user to delay reading the plate, while maintaining the relative signal strengths of the samples.
# Group-A Streptococci [1] = test: DeathTRAK proliferation/viability mode after Nonidet P-40 lysis, Group-A Streptococci; type: cell-based, Group-A Streptococcus; conditions: 90 minutes with antibiotic, after Nonidet P-40 lysis (FIG. 17)
# Excerpt: These are Gram positive organisms. […] However, both cytotoxicity and proliferation effects are seen. […] Finally, the result with gentamicin is distinctive.
# E. coli strain K1 [2] = test: DeathTRAK cytotoxicity mode, antibiotics on E. coli
# Protocol: (§1) FIGS. 13-15 illustrate the use of cytotoxicity/proliferation mode to characterize the effects of various antibiotics on E. coli cells. First, the cytotoxicity signal was obtained by adding the DeathTRAK reagent cocktail directly to the toxicity reaction, three hours after the antibiotics were added to the E. coli culture. The luminance was measured and recorded (FIG. 13), whereupon the lytic agent was added, and the luminance was immediately measured again (FIG. 14).
# (§2) E. coli (strain K1, obtained from Dr. Craig Rubens of Children's Hospital and Regional Medical Center, Seattle, Wash.) were inoculated from a frozen permanent into 1-2 mL of LB, grown overnight, diluted 1:20 into LB, grown a further 106 minutes at 37C with 240 rpm shaking, harvested by centrifugation, washed twice with LB, and resuspended to a final A600 of 1.549. It was determined by colony-forming unit assays that an A600 of 2.18 corresponds to ˜3.02×10^8 cells/mL. This was diluted to 200,000/mL and a 10% volume of 10 mM dithiothreitol and 1% protease inhibitor cocktail in LB was added (yielding 0.1% protease inhibitor cocktail after mixing). 55 μL of this mixture was distributed to each test well of a 96-well white luminance microtiter plate, whereupon 5 μL of antibiotic or PBS (vehicle) was added. The plate was shaken at 240 rpm for 3 hours at 37C. 40 μL of DeathTRAK cocktail was then added and luminance was read for ˜8 minutes. The lytic agent was then made up as equal parts 6000 units/mL polymyxin B and 50% lysozyme, both in PBS. 10 μL of this lytic agent was added to each well and the second luminance readout (proliferation/viability) was taken.
# E. coli strain K1 [3] = test: DeathTRAK proliferation/viability mode after polymyxin B/lysozyme lysis, antibiotics on E. coli; type: cell-based; conditions: for Proliferation/Viability: E. coli, Table V, DeathTRAK readout after lytic agent
# Protocol: as §1, §2
# Group-A Streptococci [4] = test: DeathTRAK cytotoxicity mode, antibiotics on Group-A Streptococci; conditions: 90 minutes with antibiotic (FIG. 16)
# Protocol: (§3) The A600 was 0.356. […] After washing the cells were grown for 90 minutes at 37C with 240 rpm shaking. Antibiotics or PBS (vehicle) were then added in 5 μL, and the protective cocktail containing dithiothreitol and protease inhibitor cocktail was added in a further 5 μL. The cells were incubated at 37C with 240 rpm shaking for a further 90 minutes, whereupon the DeathTRAK cocktail was added and the cytotoxicity read as described above for Gram negatives. The total-lysis agent, 10 μL of 2% Nonidet P-40, was then added, and the proliferation/viability signal was read as above for Gram negatives.
# E. coli = test: Colony-forming unit (CFU) tests of antibiotic-treated cultures; type: cell-based; conditions: E. coli cultures plated at various dilutions
# Group-A Streptococci [5] = tested on: Group-A Streptococci
# Protocol: as §3
# DeathTRAK signal = test: Effect of detergent on the DeathTRAK signal; type: biochemical; conditions: at 0.1% Nonidet P-40; changes very little above approximately 0.1%
# Excerpt: FIG. 12 illustrates the use of cytotoxicity/proliferation mode to measure both the cytotoxic effects and the total cell number after addition of the detergent Nonidet P40 to the mammalian cell line 841 CON. Similar results have been obtained with the PC-3 prostate cancer and T24 bladder-cancer cell lines. In these experiments, the detergent is used as both the toxin and the final lytic agent. Thus the cytotoxicity signal in FIG. 12 represents the signal obtained after the indicated quantities of detergent were added to the cells, and the proliferation signal in the same figure represents the signals obtained after an additional 0.2% Nonidet P-40 was added to all the cells. […] Thus Nonidet P-40 can be used as the universal lytic agent for measuring proliferation of mammalian cells, provided that if it is desired to compare the cytotoxicity and proliferation signals, the final signal must be corrected for the inhibitory effect of the detergent. If the final detergent concentration used is above approximately 0.1%, then this correction will consist essentially of multiplication by a constant. However, if proliferation signals alone are to be compared, this correction is not necessary. Note that in FIG. 12, the proliferation signal is fairly constant. This is because each experiment began with the same number of cells seeded into each well. […]
# [6] = E. coli K1, three hours with antibiotic, after lytic agent (FIG. 14)
compound,measurement,setting,value
"O=C(O)C(=O)CBr [BPV, bromopyruvic acid]",increase in luminance (ATP production) in DeathTRAK reaction,G3PDH or PGK,stopped the increase in luminance
Gentamicin,proliferation/viability signal,Group-A Streptococci [1],strongly toxic
same,Cytotoxicity,"E. coli strain K1 [2]; E. coli K1, 90 minutes (FIG. 15)",no cytotoxicity
same,effect on proliferation/viability,"E. coli strain K1 [3]; E. coli K1, similar experiment, 90 minutes (FIG. 15)",strong effect on proliferation/viability
same,Proliferation/Viability,E. coli strain K1 [3],+
same,cytotoxicity signal,Group-A Streptococci [4],negative toxicity signal
CN[C@H](CC(C)C)C(=O)N[C@H]1C(=O)N[C@@H](CC(N)=O)C(=O)N[C@H]2C(=O)N[C@H]3C(=O)N[C@H](C(=O)N[C@H](C(=O)O)c4cc(O)cc(O)c4-c4cc3ccc4O)[C@H](O)c3ccc(c(Cl)c3)Oc3cc2cc(c3O[C@@H]2O[C@H](CO)[C@@H](O)[C@H](O)[C@H]2O[C@H]2C[C@](C)(N)[C@H](O)[C@H](C)O2)Oc2ccc(cc2Cl)[C@H]1O [Vancomycin],proliferation/viability signal,Group-A Streptococci [1],very strong reduction in the proliferation/viability signal
same,cytotoxicity signal,"E. coli strain K1 [2]; E. coli K1, three hours after antibiotics were added (FIG. 13)",slight but statistically significant toxicity
same,Cytotoxicity,"E. coli strain K1 [2]; E. coli, Table V, DeathTRAK cytotoxicity readout",+
same,toxicity by CFU assay,E. coli,toxic
same,effect on proliferation/viability,E. coli strain K1 [3]; [6],slight inhibition of proliferation/viability
same,Proliferation/Viability,E. coli strain K1 [3],+
same,cytotoxicity signal,Group-A Streptococci [4],little or no direct cytotoxicity
Nc1ccc(S(N)(=O)=O)cc1 [Sulfanilamide],Cytotoxicity,E. coli strain K1 [2],−
same,cytotoxicity signal,E. coli strain K1 [2],no toxicity
same,effect on proliferation/viability,E. coli strain K1 [3]; [6],no toxicity or effect on proliferation/viability
CC1(C)S[C@@H]2[C@H](NC(=O)C(C(=O)O)c3ccccc3)C(=O)N2[C@H]1C(=O)O (some centres unmarked) [Carbenicillin],cytotoxicity signal,Group-A Streptococci [5],identified as a lytic agent
same,Cytotoxicity,E. coli strain K1 [2],+
same,cytotoxicity signal,E. coli strain K1 [2],strong cytotoxicity
same,toxicity by CFU assay,E. coli,toxic
same,effect on proliferation/viability,E. coli strain K1 [3]; [6],strong inhibitory effect on proliferation/viability
same,Proliferation/Viability,E. coli strain K1 [3],+
Nonidet P-40,inhibition of DeathTRAK signal,DeathTRAK signal,approximately 45%
